Test results taken from patent US8410153B2, “Naphthalene isoxazoline invertebrate pest control agents” (E.I. du Pont de Nemours and Company, priority 2007, dated 2013).

Assays:
Assay type in all cases: in vivo
[1] = system: fall armyworm (Spodoptera frugiperda); assay: Test B: control of fall armyworm on corn (maize) plant, foliar spray; settings: sprayed at 50 ppm
Protocol: (§1) Test compounds were formulated using a solution containing 10% acetone, 90% water and 300 ppm X-77™ Spreader Lo-Foam Formula non-ionic surfactant containing alkylarylpolyoxyethylene, free fatty acids, glycols and isopropanol (Loveland Industries, Inc. Greeley, Colo., USA). The formulated compounds were applied in 1 mL of liquid through a SUJ2 atomizer nozzle with ⅛ JJ custom body (Spraying Systems Co. Wheaton, Ill., USA) positioned 1.27 cm (0.5 inches) above the top of each test unit. All experimental compounds in these tests were sprayed at 50 ppm, and the test was replicated three times. After spraying of the formulated test compound, each test unit was allowed to dry for 1 h and then a black, screened cap was placed on top. The test units were held for 6 days in a growth chamber at 25° C. and 70% relative humidity. Plant feeding damage was then visually assessed based on foliage consumed, and a pest mortality rating was also counted and calculated for each test unit.
For evaluating control of fall armyworm (Spodoptera frugiperda) the test unit consisted of a small open container with a 4-5-day-old corn (maize) plant inside. This was pre-infested (using a core sampler) with 10-15 1-day-old larvae on a piece of insect diet. Test compounds were formulated and sprayed at 50 ppm as described for Test A and replicated three times. After spraying, the test units were maintained in a growth chamber and then the control efficacy was rated for each test unit as described for Test A.

[2] = system: diamondback moth (Plutella xylostella); assay: Test A: control of diamondback moth on radish plant, foliar spray; settings: sprayed at 50 ppm, held 6 days
Text: For evaluating control of diamondback moth (Plutella xylostella) the test unit consisted of a small open container with a 12-14-day-old radish plant inside. This was pre-infested with about 50 neonate larvae that were dispensed into the test unit via corncob grits using a bazooka inoculator. The larvae moved onto the test plant after being dispensed into the test unit.
as §1

[3] = system: western flower thrips (Frankliniella occidentalis); assay: Test E: control of western flower thrips on Soleil bean plant, contact and/or systemic; settings: held 6 days
Protocol: as §1
For evaluating control of the western flower thrips (Frankliniella occidentalis) through contact and/or systemic means, the test unit consisted of a small open container with a 5-7-day-old Soleil Bean plant inside. Test compounds were formulated and sprayed as described for Test A. All experimental compounds in these tests were sprayed at 250 or 50 ppm as noted, and the test was replicated three times. After spraying, the test units were allowed to dry for 1 h, 22-27 adult thrips were added to each unit and then a black, screened cap was placed on top. The test units were held for 6 days at 25° C. and 45-55% relative humidity. A mortality rating was assessed along with a plant damage rating for each test unit.

| Structure (SMILES) | levels of control efficacy (20% or less feeding damage or 80% or more mortality) [1] | levels of control efficacy (20% or less feeding damage or 80% or more mortality) [2] | levels of control efficacy (20% or less feeding damage or 80% or more mortality) ([3]; sprayed at 50 ppm) | levels of control efficacy (20% or less feeding damage or 80% or more mortality) ([3]; sprayed at 250 ppm) |
| --- | --- | --- | --- | --- |
| CCCNC(=O)C(C)NC(=O)c1ccc(C2=NOC(c3cc(C(F)(F)F)cc(C(F)(F)F)c3)(C(F)(F)F)C2)c2ccccc12 (stereo not drawn) [Compound 89] | very good to excellent | – | – | – |
| CC(C)NC(=O)CNC(=O)c1ccc(C2=NOC(c3cccc(F)c3)(C(F)(F)F)C2)c2ccccc12 (stereo not drawn) [Compound 76] | – | very good to excellent | – | – |
| O=C(CNC(=O)c1ccc(C2=NOC(c3cccc(F)c3)(C(F)(F)F)C2)c2ccccc12)NCC(F)(F)F (stereo not drawn) [Compound 74] | – | very good to excellent | – | – |
| CC(C)(CO)CNC(=O)c1ccc(C2=NOC(c3cccc(C(F)(F)F)c3)(C(F)(F)F)C2)c2ccccc12 (stereo not drawn) [Compound 61] | – | very good to excellent | – | – |
| O=C(NCCCO)c1ccc(C2=NOC(c3cccc(C(F)(F)F)c3)(C(F)(F)F)C2)c2ccccc12 (racemic) [Compound 42] | – | very good to excellent | very good to excellent | very good to excellent |
| O=C(CNC(=O)c1ccc(C2=NOC(c3cc(F)cc(F)c3)(C(F)(F)F)C2)c2ccccc12)NCC(F)(F)F (stereo not drawn) [Compound 73] | – | very good to excellent | – | very good to excellent |
| CC(C)CNC(=O)C(C)NC(=O)c1ccc(C2=NOC(c3cc(Cl)cc(C(F)(F)F)c3)(C(F)(F)F)C2)c2ccccc12 (mixture of isomers) [Compound 130] | very good to excellent | – | – | – |
| CCCNC(=O)C(C)NC(=O)c1ccc(C2=NOC(c3cc(Cl)cc(C(F)(F)F)c3)(C(F)(F)F)C2)c2ccccc12 (mixture of isomers) [Compound 108] | – | very good to excellent | very good to excellent | very good to excellent |
| CSCCNC(=O)c1ccc(C2=NOC(c3cc(F)cc(F)c3)(C(F)(F)F)C2)c2ccccc12 (stereo not drawn) [Compound 77] | – | very good to excellent | – | very good to excellent |
| CCNC(=O)C(C)NC(=O)c1ccc(C2=NOC(c3cc(Cl)cc(C(F)(F)F)c3)(C(F)(F)F)C2)c2ccccc12 (mixture of isomers) [Compound 110] | – | very good to excellent | very good to excellent | very good to excellent |
| CS(=O)(=O)CCNC(=O)c1ccc(C2=NOC(c3cc(F)cc(F)c3)(C(F)(F)F)C2)c2ccccc12 (stereo not drawn) [Compound 80] | – | very good to excellent | – | very good to excellent |
| CC(O)CCNC(=O)c1ccc(C2=NOC(c3cccc(C(F)(F)F)c3)(C(F)(F)F)C2)c2ccccc12 (mixture of isomers) [Compound 44] | – | very good to excellent | very good to excellent | very good to excellent |
| CC(C)(CO)NC(=O)c1ccc(C2=NOC(c3cc(Cl)cc(Cl)c3)(C(F)(F)F)C2)c2ccccc12 (racemic) [Compound 32] | – | very good to excellent | very good to excellent | very good to excellent |
| CCCNC(=O)C(C)NC(=O)c1ccc(C2=NOC(c3cc(C(F)(F)F)cc(C(F)(F)F)c3)(C(F)(F)F)C2)c2ccccc12 (mixture of isomers) [Compound 84] | – | very good to excellent | very good to excellent | very good to excellent |
| O=C(CCNC(=O)c1ccc(C2=NOC(c3cc(Cl)cc(Cl)c3)(C(F)(F)F)C2)c2ccccc12)NCC(F)(F)F (stereo not drawn) [Compound 9] | – | very good to excellent | – | – |
| CC(C)NC(=O)C(C)NC(=O)c1ccc(C2=NOC(c3cc(Cl)cc(C(F)(F)F)c3)(C(F)(F)F)C2)c2ccccc12 (mixture of isomers) [Compound 107] | – | very good to excellent | very good to excellent | very good to excellent |
| CC(NC(=O)c1ccc(C2=NOC(c3cc(Cl)cc(C(F)(F)F)c3)(C(F)(F)F)C2)c2ccccc12)C(=O)NCC(C)(C)C (mixture of isomers) [Compound 131] | – | very good to excellent | – | very good to excellent |
| CC(NC(=O)c1ccc(C2=NOC(c3cc(Cl)cc(C(F)(F)F)c3)(C(F)(F)F)C2)c2ccccc12)C(=O)NCC(F)(F)F (mixture of isomers) [Compound 106] | – | very good to excellent | very good to excellent | very good to excellent |
| CSCCNC(=O)c1ccc(C2=NOC(c3cccc(F)c3)(C(F)(F)F)C2)c2ccccc12 (stereo not drawn) [Compound 78] | – | very good to excellent | – | – |
| CC(NC(=O)CNC(=O)c1ccc(C2=NOC(c3cc(C(F)(F)F)cc(C(F)(F)F)c3)(C(F)(F)F)C2)c2ccccc12)C(F)(F)F (mixture of isomers) [Compound 104] | – | very good to excellent | – | – |
| CC(C)(C)SCCNC(=O)c1ccc(C2=NOC(c3cccc(C(F)(F)F)c3)(C(F)(F)F)C2)c2ccccc12 (racemic) [Compound 57] | – | very good to excellent | – | – |
| CNC(=O)C(C)NC(=O)c1ccc(C2=NOC(c3cc(C(F)(F)F)cc(C(F)(F)F)c3)(C(F)(F)F)C2)c2ccccc12 (mixture of isomers) [Compound 95] | – | very good to excellent | – | – |
| CC(C)CNC(=O)C(C)NC(=O)c1ccc(C2=NOC(c3cc(Cl)cc(C(F)(F)F)c3)(C(F)(F)F)C2)c2ccccc12 (mixture of isomers) [Compound 111] | – | very good to excellent | very good to excellent | very good to excellent |
| CC(C)NC(=O)CNC(=O)c1ccc(C2=NOC(c3cc(F)cc(F)c3)(C(F)(F)F)C2)c2ccccc12 (stereo not drawn) [Compound 75] | – | very good to excellent | – | – |
| CC(NC(=O)c1ccc(C2=NOC(c3cc(C(F)(F)F)cc(C(F)(F)F)c3)(C(F)(F)F)C2)c2ccccc12)C(=O)NCC(F)(F)F (mixture of isomers) [Compound 94] | – | very good to excellent | – | – |
| CC(NC(=O)c1ccc(C2=NOC(c3cc(C(F)(F)F)cc(C(F)(F)F)c3)(C(F)(F)F)C2)c2ccccc12)C(=O)NCC(C)(C)C (mixture of isomers) [Compound 97] | – | – | very good to excellent | – |
| CC(C)C(NC(=O)c1ccc(C2=NOC(c3cc(Cl)cc(Cl)c3)(C(F)(F)F)C2)c2ccccc12)C(=O)NCC(F)(F)F (mixture of isomers) [Compound 2] | – | very good to excellent | – | – |
| CC(NC(=O)c1ccc(C2=NOC(c3cc(Cl)cc(C(F)(F)F)c3)(C(F)(F)F)C2)c2ccccc12)C(=O)NCC(C)(C)C (mixture of isomers) [Compound 112] | – | very good to excellent | – | very good to excellent |
| CNC(=O)C(C)NC(=O)c1ccc(C2=NOC(c3cc(Cl)cc(C(F)(F)F)c3)(C(F)(F)F)C2)c2ccccc12 (mixture of isomers) [Compound 109] | – | very good to excellent | very good to excellent | very good to excellent |
